Data published in the supplement of paper PMC10307832.

Columns and labels:
Experiment in all cases: relative viability (nuclei count vs DMSO), 5 days (fraction); higher = more cells survive
BAY61-3606 + Phenformin = compound: COC1=C(C=C(C=C1)C2=CC3=NC=CN3C(=N2)NC4=C(C=CC=N4)C(=O)N)OC [BAY61-3606] + N=C(N)NC(=N)NCCc1ccccc1 [Phenformin] (partner 250 µM)
How it was run: (§1)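 Nuclei were stained with Hoechst during a one-step fixation (final 0.05% Triton X-100, 1% formaldehyde, 1 ug/ml Hoechst) carried out 5 days after dosing, then counted on 4× images. The cells, lung cancer lines in 1536-well plates, had been dosed by pin tool the day after seeding with one drug alone or a fixed anchor-drug dose plus five library-drug doses (not always all listed) in √10 steps. Relative viability is the nuclei count in treated wells divided by that in vehicle wells, and each value is the median of duplicate plates.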

Doxorubicin + Trametinib = compound: COc1cccc2c1C(=O)c1c(O)c3c(c(O)c1C2=O)C[C@@](O)(C(=O)CO)C[C@@H]3O[C@H]1C[C@H](N)[C@H](O)[C@H](C)O1 [Doxorubicin] + CC(=O)Nc1cccc(-n2c(=O)n(C3CC3)c(=O)c3c(Nc4ccc(I)cc4F)n(C)c(=O)c(C)c32)c1 [Trametinib] (partner 0.02 µM)
How it was run: as §1

Doxorubicin + Pictilisib = compound: COc1cccc2c1C(=O)c1c(O)c3c(c(O)c1C2=O)C[C@@](O)(C(=O)CO)C[C@@H]3O[C@H]1C[C@H](N)[C@H](O)[C@H](C)O1 [Doxorubicin] + CS(=O)(=O)N1CCN(Cc2cc3nc(-c4cccc5[nH]ncc45)nc(N4CCOCC4)c3s2)CC1 [Pictilisib] (partner 1 µM)
How it was run: as §1

Doxorubicin + Vorinostat = compound: COc1cccc2c1C(=O)c1c(O)c3c(c(O)c1C2=O)C[C@@](O)(C(=O)CO)C[C@@H]3O[C@H]1C[C@H](N)[C@H](O)[C@H](C)O1 [Doxorubicin] + O=C(CCCCCCC(=O)Nc1ccccc1)NO [Vorinostat] (partner 1 µM)
How it was run: as §1

Row | Cell Line | relative viability (BAY61-3606 + Phenformin; first compound 0.02 µM) | relative viability (BAY61-3606 + Phenformin; first compound 0.06325 µM) | relative viability (BAY61-3606 + Phenformin; first compound 0.2 µM) | relative viability (BAY61-3606 + Phenformin; first compound 0.6325 µM) | relative viability (BAY61-3606 + Phenformin; first compound 2 µM) | relative viability (Doxorubicin + Trametinib; first compound 0.001 µM) | relative viability (Doxorubicin + Trametinib; first compound 0.003162 µM) | relative viability (Doxorubicin + Trametinib; first compound 0.01 µM) | relative viability (Doxorubicin + Trametinib; first compound 0.03162 µM) | relative viability (Doxorubicin + Trametinib; first compound 0.1 µM) | relative viability (Doxorubicin + Pictilisib; first compound 0.001 µM) | relative viability (Doxorubicin + Pictilisib; first compound 0.003162 µM) | relative viability (Doxorubicin + Pictilisib; first compound 0.01 µM) | relative viability (Doxorubicin + Pictilisib; first compound 0.03162 µM) | relative viability (Doxorubicin + Pictilisib; first compound 0.1 µM) | relative viability (Doxorubicin + Vorinostat; first compound 0.001 µM) | relative viability (Doxorubicin + Vorinostat; first compound 0.003162 µM) | relative viability (Doxorubicin + Vorinostat; first compound 0.01 µM) | relative viability (Doxorubicin + Vorinostat; first compound 0.03162 µM) | relative viability (Doxorubicin + Vorinostat; first compound 0.1 µM)
1 | NCI-H1734 | 0.446 | 0.338 | 0.288 | 0.354 | 0.244 | 0.689 | 0.724 | 0.641 | 0.611 | 0.634 | 0.464 | 0.498 | 0.389 | 0.321 | 0.267 | 0.737 | 0.815 | 0.747 | 0.558 | 0.536
2 | NCI-H1563 | 0.631 | 0.59 | 0.604 | 0.62 | 0.61 |  |  |  |  |  | 0.585 | 0.602 | 0.62 | 0.541 | 0.532 |  |  |  |  | 
3 | NCI-H441 | 0.818 | 0.934 | 0.782 | 0.972 | 0.652 | 0.426 | 0.471 | 0.45 | 0.205 | 0.188 | 0.434 | 0.521 | 0.404 | 0.292 | 0.323 | 0.87 | 0.962 | 0.75 | 0.279 | 0.372
4 | H3255 | 0.351 | 0.342 | 0.371 | 0.399 | 0.342 |  | 0.62 | 0.633 | 0.518 | 0.591 | 0.481 | 0.482 | 0.415 | 0.452 | 0.48 |  | 0.913 | 0.698 | 0.88 | 0.428
5 | Calu-6 |  |  |  |  |  |  |  |  |  |  | 0.919 | 0.799 | 0.516 | 0.263 | 0.172 |  |  |  |  | 
6 | NCI-H1915 | 0.369 | 0.376 | 0.328 | 0.366 | 0.261 | 0.306 | 0.31 | 0.313 | 0.312 | 0.303 | 0.854 | 1.01 | 0.954 | 1.06 | 1.03 | 0.521 | 0.57 | 0.532 | 0.5 | 0.527
7 | NCI-H1793 | 0.363 | 0.216 |  | 0.41 | 0.271 |  | 0.4 | 0.373 | 0.4 | 0.4 |  | 0.365 | 0.417 | 0.309 | 0.301 |  | 0.867 | 0.728 | 0.659 | 0.731
8 | NCI-H1651 | 0.332 | 0.311 | 0.325 | 0.279 | 0.302 | 0.82 | 0.843 | 0.817 | 0.707 | 0.796 | 0.608 | 0.437 | 0.412 | 0.138 | 0.107 | 0.572 | 0.591 | 0.569 | 0.533 | 0.495
9 | NCI-H2126 | 0.547 | 0.496 | 0.524 | 0.491 | 0.47 | 0.6 | 0.572 | 0.561 | 0.526 | 0.601 | 0.494 | 0.523 | 0.501 | 0.49 | 0.517 | 0.725 | 0.839 | 0.8 | 0.751 | 0.799
10 | HCC-44 | 0.189 | 0.134 | 0.141 | 0.251 | 0.182 | 0.987 | 1.11 | 1.05 | 1.05 | 1.07 | 0.722 | 0.66 | 0.58 | 0.531 | 0.527 | 1.1 | 1.15 | 1.1 | 1.12 | 1.12
11 | RERF-LC-KJ | 0.417 | 0.404 | 0.424 | 0.467 | 0.343 | 0.659 | 1.02 | 0.696 | 0.514 | 0.513 | 0.531 | 0.54 | 0.595 | 0.501 | 0.48 | 0.672 | 0.721 | 0.632 | 0.469 | 0.487
12 | NCI-H1792 | 0.37 |  | 0.336 | 0.544 | 0.333 | 0.393 | 0.556 | 0.456 | 0.392 | 0.422 | 0.325 | 0.287 | 0.309 | 0.209 | 0.251 |  |  |  |  | 
13 | EBC-1 |  |  |  |  |  |  |  |  |  |  | 0.388 | 0.405 | 0.295 | 0.195 | 0.11 |  |  |  |  | 
14 | NCI-H1623 | 0.58 | 0.522 | 0.588 | 0.58 | 0.588 |  |  |  |  |  |  |  |  |  |  |  |  |  |  | 
15 | NCI-H1648 |  |  |  |  |  | 0.474 | 0.429 | 0.555 | 0.492 | 0.541 |  |  |  |  |  | 0.421 | 0.376 | 0.468 | 0.285 | 0.467
16 | NCI-H522 | 0.634 | 0.624 | 0.674 | 0.749 | 0.557 | 0.706 | 0.79 | 0.76 | 0.708 | 0.777 |  |  |  |  |  | 0.869 | 0.93 | 0.716 | 0.786 | 0.878
17 | IA-LM |  |  |  |  |  |  |  |  |  |  | 0.287 | 0.341 | 0.254 | 0.0936 | 0.0491 | 0.837 | 1.21 | 0.937 | 0.946 | 0.975
18 | NCI-H2342 | 0.629 | 0.65 | 0.535 | 0.586 | 0.662 | 0.901 | 0.729 | 0.954 | 0.685 | 0.724 |  |  |  |  |  | 0.757 | 0.845 | 0.692 | 0.535 | 0.696
19 | NCI-H1299 |  |  |  |  |  |  |  |  |  |  | 0.799 | 0.762 | 0.699 | 0.273 | 0.196 |  |  |  |  | 
20 | A549 | 0.17 | 0.0908 | 0.0972 | 0.212 | 0.166 |  |  |  |  |  | 0.49 | 0.355 | 0.201 | 0.0558 | 0.0454 |  |  |  |  | 
21 | SW 900 | 0.736 | 0.456 | 0.489 | 0.594 | 0.473 |  | 1.01 | 0.75 | 0.623 | 1.03 |  |  |  |  |  |  | 0.452 | 0.394 | 0.346 | 0.26
22 | ABC-1 | 0.254 | 0.269 | 0.219 | 0.227 | 0.284 |  |  |  |  |  | 0.849 | 0.642 | 0.566 | 0.317 | 0.356 | 1.25 | 0.999 | 0.908 | 0.509 | 0.309
23 | NCI-H1703 |  |  |  |  |  |  |  |  |  |  | 0.258 | 0.227 | 0.189 | 0.177 | 0.136 |  |  |  |  | 
